{
  "source": "patent US10654838B2",
  "about": "“Aminopyridine compounds useful as inhibitors of protein prenylation” (INSTITUT NATIONAL DE LA SANTE ET DE LA RECHERCHE MEDICALE …, priority 2014, dated 2020)",
  "type_in_all_cases": "cell-based, human",
  "key": {"HGPS MSCs [1]": {"tested_on": "HGPS MSCs", "experiment": "Live cell imaging (cell density)", "settings": "7 days", "experimental": "HGPS MSCs were seeded at 2500 cells per well in 96-well plates and cultivated during 7 days in presence of the drugs. Cell density was monitored using an IncuCyte ZOOM microscope (Essen Bioscience). Each value corresponds to the mean of cell densities of four pictures taken in three independent wells."}, "HGPS MSCs [2]": {"tested_on": "HGPS MSCs", "experiment": "Osteogenic differentiation (alkaline phosphatase activity)", "settings": "7 days of osteogenic differentiation", "experimental": "MSC were seeded at 600 cells per well in 384 well plate in MSC culture medium and treated as previously described. After 72 hours, MSC medium was replaced by STEMPRO osteogenic induction medium (Invitrogen) in presence or not of the different drugs. After 7 days of treatment, cells were fixed with ethanol 95% and stained by adding either a colorimetric substrate of the alkaline phosphatase, the 5-Bromo-4-chloro-3-indolyl phosphate/Nitro blue tetrazolium (NBT) (Sigma-Aldrich) or a chromogenic substrate of this enzyme (absorbance at 405 nm), the p-Nitrophenyl Phosphate (pNPP) (Pierce Biotechnology)."}, "HGPS MSCs [3]": {"tested_on": "HGPS MSCs", "experiment": "Nuclear shape abnormalities (lamin A/C immunostaining)", "settings": "48 h, lamin A/C staining", "experimental": "In the 4-steps protocol, cells were fixed in 4% paraformaldehyde (15 minutes, room temperature) before permeabilization and blocking in PBS supplemented with 0.1% triton X-100 and 1% BSA (Sigma-Aldrich, St. Louis, USA). Primary antibodies were incubated one hour at room temperature in blocking buffer. Antibodies included mouse anti-lamins A/C (clone JOL2, Millipore, Billerica, USA), rabbit anti-prelamin A (ANTOO45, Diatheva) and anti-Ki67 (clone Ki-S5, MAB4190, Millipore, Billerica, USA). Cells were stained with the species-specific fluorophore-conjugated secondary antibody (Invitrogen) (one hour, room temperature) and nuclei were visualized with Hoechst 33342."}, "prelamin A": {"tested_on": "prelamin A", "experiment": "Western immunoblotting of prelamin A", "settings": "HGPS MSCs, optimal concentration", "experimental": "Whole-cell lysates of MSC were collected, separated by SDS-PAGE, and transferred onto PVPF membrane by liquid transfer method. Blots were blocked in 10% skim milk (Bio-Rad) in tween 0.1% tris-buffered saline (TTBS) 1× one hour at room temperature. The primary antibodies used were a mouse anti-lamins A/C 1:200 (Millipore, JOL2), a rabbit anti-prelamin A 1/100 (ANTOO45, Diatheva) and a β-actin 1/200000 (Sigma). Membranes were incubated during the night at 4° C. Antigen-antibody binding was detected using horseradish peroxidaseconjugated species-specific secondary antibodies (GE-Healthcare, Little Chalfont, UK) followed by enhanced chemiluminescence Western blotting detection reagents (Perkin-Elmer, Waltham, USA)."}},
  "data": [
    {"compound": "N#CC(c1ccccn1)c1ccnc(N2CCN(Cc3ccccc3F)CC2)n1", "note": "(stereo not shown) [Mono-AP1, {2-[4-(2-fluoro-benzyl)-piperazin-1-yl]-pyrimidin-4-yl}-pyridin-2-yl-acetonitrile]", "values": [
      {"measurement": "cytostatic effect in long term live imaging cultures", "setting": "HGPS MSCs [1]", "result": "less cytostatic than the FTI tipifarnib"},
      {"measurement": "rescue of premature osteogenic differentiation (alkaline phosphatase activity)", "setting": "HGPS MSCs [2]", "result": "not significantly different to those observed following FTI treatment"},
      {"measurement": "rescue of nuclear shape abnormalities", "setting": "HGPS MSCs [3]", "result": "restoring HGPS MSCs nuclear shape defects at levels not significantly different from the FTI tipifarnib"},
      {"measurement": "prelamin A level (Western blot)", "setting": "prelamin A", "result": "increased"}
    ]}
  ]
}
